Data from patent publication US20200392150A1, “Diaryl-B-Lactam Compound and Preparation Method and Pharmaceutical Use Thereof” (Fudan University, priority 2016, published 2020).
Entries after “also recorded” stand apart in the source; their conditions may differ.

What was measured:
tubulin in Hela cells = test: Immunoblotting analysis of polymerized/depolymerized tubulin; assay type: cell-based, human; conditions: 6 h
Description: After being treated with diluent (0.2% DMSO), tested compound, CA-4 or PTX for 6 h, Hela cells were lysed with microtubulestabilizing buffer, containing 100 mM PIPES, pH 6.8, 1 mM MgCl2, 2 mM EGTA, 0.5% NP-40, 2 M glycerol, 5 μM PTX and protease inhibitors cocktail (Roche), and the lysate was centrifuged at 15,000 rpm for 15 min. Supernatant containing depolymerized tubulin was carefully collected, whereas pellet (polymerized tubulin) was further dissolved in SDS-lysis buffer (Beyotime, China). Equal amounts of supernatant and dissolved pellet were subjected to immunoblotting analysis as described above using atubulin antibody (Proteintech).

tubulin in SKOV-3 cells = test: Immunofluorescent analysis of tubulin morphology; assay type: cell-based, human; conditions: 24 h
Description: After treatment with diluent (0.2% DMSO) or tested compounds at indicated concentrations for 24 h, SKOV-3 cells were fixed with methanol, permeabilized with 0.1% Triton X-100 in PBS and blocked by goat serum. Then the cells were incubated with a-tubulin antibody at 4° C. overnight, followed by incubation with Alexa 488 labeled secondary antibody (Jackson ImmunoResearch) at RT for 1 h. After being stained with DAPI, cells were examined and photographed with a Leica SP5 co-focal fluorescence microscope.

[1] = system: human umbilical veinendothelial cells (HUVECs); test: Capillary-like tube formation assay; assay type: cell-based; conditions: HUVECs on matrigel, 12 h
Description: […] matrigel (Corning) per well was added to 96-well plate and pre-incubated at 37° C. for 1 h for gelation. 3*10^4 human umbilical veinendothelial cells (HUVECs) in […] medium per well containing indicated concentrations of 69, 70 and 97, CA-4 as positive control, or diluent (0.2% DMSO) as negative control, respectively, were seeded to 96-well plates on the matrigel layer, followed by continual incubation at 37° C. for 12 h to allow capillary-like tube formation. Images were captured with a CCD Sensicam camera mounted on an Olympus inverted microscope. Representative data from three independent experiments were shown.

MDA-MB-231 cells = test: Colony formation assay; assay type: cell-based, human; conditions: 48 h treatment, 7-10 days growth
Description: 1000 MDA-MB-231 cells per well were seeded into 6-well plate at a single cell density and were cultured at 37° C. for 48 h. After being treated with indicated concentrations of 69, 70 and 97, CA-4 as positive control, or diluent (0.2% DMSO) as negative control for 48 h, the agents containing medium was replaced by fresh medium to allow cell growth for additional 7-10 days. Then the cells were fixed with methanol and stained with gentian violet for 30 min.
The number of colonies which consisted of more than 50 cells were counted. The results were indicated as mean values from three independent determinations.

Hela cells = test: Cell cycle analysis; assay type: cell-based, human; conditions: 24 h
Description: 2*10^5 Hela cells per well were seeded into six-well plate and allowed to adhere overnight at 37° C. After treatment with indicated concentrations of 69, 70 and 97, CA-4 as positive control or diluent (0.2% DMSO) as negative control for 24 h, cells were harvested, washed twice with PBS and fixed with 75% ethanol at −20° C. overnight. Then cells were stained with propidium iodide dye (BD Biosciences) for 15 min in dark conditions at room temperature, followed by subjected to flow cytometry (Cytomics FC 500MPL, Beckman Coulter) detection. The results were analyzed by Multicycle AV (for Windows, version 320) software and indicated as mean values from three independent determinations.

[2] = system: Bax, p53 and cleaved-PARP in HeLa cells; test: Expression level of apoptosis associated proteins; assay type: cell-based, human; conditions: western blotting and qPCR
Description: A. Western blotting: After being treated with candidate compound, cells were harvested and lysed. Then, the lysate was isolated by ultracentrifuge and quantified by BCA assay according to the protocol. After being denatured, equivalent protein of each sample was separated by SDSPAGE gel and wet-transferred onto 0.22 μm nitrocellulose membrane. After being blocked by PBS containing 5% skim milk, the membrane was incubated with primary antibody at 4° C. overnight and secondary antibody at room temperature for 2 h and then visualized by enhanced chemiluminescence kit (Thermo Fisher, USA), sequentially.
B. Quantitative PCR assay: HeLa cells were treated with 69, 70 or 97. The expression level of mRNA of target proteins was tested with qPCR kit (Takara).

KM mice = test: Acute toxicity assay; assay type: in vivo; conditions: for No. of dead mice 5-14 days / No. of dead mice 1 day / No. of dead mice 2 days / No. of dead mice 3 days / No. of dead mice 4 days / Survival (%) on day 14 / Total death: single i.p. injection
Description: KM mice were housed individually in a specific pathogen free facility. Groups of mice (n=10 per group, half male and half female) were injected intraperitoneally once with various dosages of 69 (95, 70, 50, 35, 25 mg/kg), 70 (500, 425, 350, 275, 200 mg/kg), 97 (275, 200, 150, 125 and 100 mg/kg) or vehicle (8.3% cremohorp EL and 8.3% alcohol in PBS) as negative control, respectively. 69, 70 and 97 was dissolved in cremeohore EL and alcohol mixture (1:1, v/v) and further diluted with PBS (1:5, v/v). The death of mice were monitored daily and recorded up to 14 days after injection.

## COc1ccc([C@H]2[C@H](CO)C(=O)N2c2cc(OC)c(OC)c(OC)c2)cc1O [Compound 69, (3R,4R)-4-(3-hydroxy-4-methoxyphenyl)-3-(hydroxymethyl)-1-(3,4,5-trimethoxyphenyl)azetidin-2-one]
Tubulin in Hela cells
  polymerized tubulin (immunoblotting): significantly inhibit tubulin aggregation; also recorded: dramatically reduction of polymerized tubulin
Tubulin in SKOV-3 cells
  tubulin assembly (immunofluorescence): significantly inhibit tubulin aggregation; also recorded: strongly inhibit tubulin assembly
[1]
  capillary-like tube formation: significantly inhibit the formation of capillary-like structures; also recorded: almost completely disrupted the capillary-like tube formation
MDA-MB-231 cells
  colony formation: significantly inhibit the formation of colonies; also recorded: dose-dependently reduced
Hela cells
  cell cycle arrest (G2/M, mitotic arrest): significantly arrest cells in the G2/M phase; also recorded: significantly induce cellular mitotic arrest
[2]
  expression of Bax, p53 and cleaved-PARP: significantly promote the expression of the proapoptotic protein Bax, the tumor suppressor gene p53, and the cleaved DNA repair enzyme; also recorded: significantly induce the expression of Bax, p53 and cleaved-PARP
KM mice; 25 mg/kg
  No. of dead mice 5-14 days: 0
  No. of dead mice 1 day: 0
  No. of dead mice 2 days: 0
  No. of dead mice 3 days: 0
  No. of dead mice 4 days: 0
  Survival (%) on day 14: 100%
  Total death: 0
KM mice; 35 mg/kg
  No. of dead mice 5-14 days: 0
  No. of dead mice 1 day: 0
  No. of dead mice 2 days: 0
  No. of dead mice 3 days: 1
  No. of dead mice 4 days: 0
  Survival (%) on day 14: 90%
  Total death: 1
KM mice; 50 mg/kg
  No. of dead mice 5-14 days: 0
  No. of dead mice 1 day: 0
  No. of dead mice 2 days: 0
  No. of dead mice 3 days: 1
  No. of dead mice 4 days: 0
  Survival (%) on day 14: 90%
  Total death: 1
KM mice; 70 mg/kg
  No. of dead mice 5-14 days: 1
  No. of dead mice 1 day: 0
  No. of dead mice 2 days: 0
  No. of dead mice 3 days: 4
  No. of dead mice 4 days: 2
  Survival (%) on day 14: 30%
  Total death: 7
KM mice; 95 mg/kg
  No. of dead mice 5-14 days: 1
  No. of dead mice 1 day: 0
  No. of dead mice 2 days: 0
  No. of dead mice 3 days: 6
  No. of dead mice 4 days: 1
  Survival (%) on day 14: 20%
  Total death: 8
KM mice; single intraperitoneal injection, 14 days
  LD50: 61.5 mg/kg

## COc1ccc([C@H]2[C@@H](C)C(=O)N2c2cc(OC)c(OC)c(OC)c2)cc1O [Compound 70, (3R,4R)-4-(3-hydroxy-4-methoxyphenyl)-3-methyl-1-(3,4,5-trimethoxyphenyl)azetidin-2-one]
Tubulin in Hela cells
  polymerized tubulin (immunoblotting): significantly inhibit tubulin aggregation; also recorded: dramatically reduction of polymerized tubulin
Tubulin in SKOV-3 cells
  tubulin assembly (immunofluorescence): significantly inhibit tubulin aggregation; also recorded: strongly inhibit tubulin assembly
[1]
  capillary-like tube formation: significantly inhibit the formation of capillary-like structures; also recorded: almost completely disrupted the capillary-like tube formation
MDA-MB-231 cells
  colony formation: significantly inhibit the formation of colonies; also recorded: dose-dependently reduced
Hela cells
  cell cycle arrest (G2/M, mitotic arrest): significantly arrest cells in the G2/M phase; also recorded: significantly induce cellular mitotic arrest
[2]
  expression of Bax, p53 and cleaved-PARP: significantly promote the expression of the proapoptotic protein Bax, the tumor suppressor gene p53, and the cleaved DNA repair enzyme; also recorded: significantly induce the expression of Bax, p53 and cleaved-PARP
KM mice; 200 mg/kg
  No. of dead mice 5-14 days: 0
  No. of dead mice 1 day: 0
  No. of dead mice 2 days: 0
  No. of dead mice 3 days: 0
  No. of dead mice 4 days: 0
  Survival (%) on day 14: 100%
  Total death: 0
KM mice; 275 mg/kg
  No. of dead mice 5-14 days: 1
  No. of dead mice 1 day: 0
  No. of dead mice 2 days: 0
  No. of dead mice 3 days: 0
  No. of dead mice 4 days: 1
  Survival (%) on day 14: 80%
  Total death: 2
KM mice; 350 mg/kg
  No. of dead mice 5-14 days: 0
  No. of dead mice 1 day: 0
  No. of dead mice 2 days: 0
  No. of dead mice 3 days: 1
  No. of dead mice 4 days: 0
  Survival (%) on day 14: 90%
  Total death: 1
KM mice; 425 mg/kg
  No. of dead mice 5-14 days: 0
  No. of dead mice 1 day: 0
  No. of dead mice 2 days: 0
  No. of dead mice 3 days: 3
  No. of dead mice 4 days: 0
  Survival (%) on day 14: 70%
  Total death: 3
KM mice; 500 mg/kg
  No. of dead mice 5-14 days: 0
  No. of dead mice 1 day: 0
  No. of dead mice 2 days: 0
  No. of dead mice 3 days: 4
  No. of dead mice 4 days: 0
  Survival (%) on day 14: 60%
  Total death: 4
